Experiments:
TRET1 = target: T1, TRET1 (Polypedilum vanderplanki, UniProt A5LGM7); assay type: cell-based
T1 construct: ORF of either Tret1, DmTret1, AmTret1, AgTret1 or BmTret1 cDNA was amplified with PCR; expressed in transfected cells; host or cells: Xenopus laevis oocytes injected with cRNA
T1 sequence (A5LGM7 1-504): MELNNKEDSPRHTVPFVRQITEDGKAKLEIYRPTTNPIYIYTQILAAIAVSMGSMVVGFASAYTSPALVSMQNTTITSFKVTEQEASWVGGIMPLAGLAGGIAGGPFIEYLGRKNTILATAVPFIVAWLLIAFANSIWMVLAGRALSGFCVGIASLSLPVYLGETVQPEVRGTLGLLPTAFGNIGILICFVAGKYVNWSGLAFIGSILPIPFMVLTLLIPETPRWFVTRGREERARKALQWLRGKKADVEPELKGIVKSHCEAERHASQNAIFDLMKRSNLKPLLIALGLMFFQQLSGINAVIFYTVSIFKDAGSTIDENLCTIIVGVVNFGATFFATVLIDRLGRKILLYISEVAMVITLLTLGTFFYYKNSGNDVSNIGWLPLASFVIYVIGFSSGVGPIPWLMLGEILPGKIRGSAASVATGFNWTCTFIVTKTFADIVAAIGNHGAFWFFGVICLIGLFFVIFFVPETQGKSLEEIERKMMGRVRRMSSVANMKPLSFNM
From the text: (§1) The capped RNA (cRNA) expression vector pTRET1-XbG-ev1 series was constructed as follows: ORF of either Tret1, DmTret1, AmTret1, AgTret1 or BmTret1 cDNA was amplified with PCR using specific primers containing Bgl II site at the 5′-end on each primer, respectively. The PCR products were digested with the restriction enzymes, and cloned into the site of Bgl II in pXbG-ev1 (Preston, G. M., et al. (1992) Science 256, 385-387). ORF of hGLUT1 cDNA was obtained by digestion of pSPMM1 with BamH I, and then subcloned into the site of Bgl II in pXbG-2. Template DNAs for cRNA synthesis were amplified from the corresponding cRNA expression vectors with a high fidelity DNA polymerase, KOD—Plus—, (TOYOBO). The cRNAs were synthesized with mMESSAGE mMACHINE T7 Kit (Ambion), and then purified with RNeasy MiniElute Cleanup kit (Qiagen).
Stage V or VI oocytes were extirpated from X. laevis females, and digested ovarian lobes with 0.2% (w/v) collagenase, type II (Sigma-Aldrich) in Ca^2+-free modified Barth's saline (MBS; 88.0 mM NaCl, 1.0 mM KCl, 2.4 mM NaHCO3, 15.0 mM Tris-Cl, 0.82 mM MgSO4, […] penicillin and streptomycin, pH7.6) at 15° C. for 3 h. The oocytes were microinjected with 40 nl of either 1 ng/nl of the TRET1::AcGFP1 or AcGFP1 cRNA, or nuclease-free water (Invitrogen) as a negative control. In order to express TRET1, the oocytes were incubated in MBS (containing 0.41 mM CaCl2) for 3-4 days after injection at 15° C. Fluorescence images of the oocytes injected with the cRNA were observed and analyzed with a fluorescence microscope BZ-8000 (KEYENCE).
All uptake assays for zero-trans trehalose and/or other sugars were performed using Xenopus oocytes expressing TRET1 at 15° C. in MBS containing appropriate concentrations of sugars. Sugar concentrations were determined using HPLC (Watanabe, M., et al. (2002) J Exp Biol 205, 2799-2802). All assays were carried out in triplicate.
Xenopus oocytes expressing either TRET1 or hGLUT1 were incubated in 105 mM of various sugars for 3 h. Tre: trehalose; Mal: maltose; Suc: sucrose; Lac: lactose; MAG: methyl-a-glucopyranoside; and 2-DOG: 2-deoxy-glucose (FIG. 3B).
In General, transporters contain two sub-classes: facilitated transporters and secondary active transporters. Activities of secondary active transporters are dependent on the electrochemical membrane potential resulting from the distribution of ions such as H^+. For example, proton-dependent MAL11/AGT1 can act only under acidic extracellular conditions (Stambuk, B. U., et al. (1996) Eur J Biochem 237, 876-881). On the other hand, facilitated transporters function independently of the electrochemical membrane potential. Xenopus oocytes expressing TRET1 were incubated in 105 mM trehalose at pH 4.2 and 7.6 for 3 h.
Xenopus oocytes expressing TRET1 were incubated in 105 mM trehalose with either control buffer (Mock; 0.1% acetone), or buffer containing various concentrations of nigericin (Na^+, K^+-ionophore), valinomycin (K^+-ionophore) or CCCP (H^+-ionophore, uncoupler) for 3 h.
In general, facilitated transporters enable their substrates to flow across membranes down concentration gradients. Xenopus oocytes expressing TRET1 were first incubated in 105 mM trehalose for 3 h, and then transferred into trehalose-free buffer and trehalose content was examined over time.
Xenopus oocytes expressing TRET1 were incubated in various concentrations of trehalose for 15 min. Uptake data were fitted to the Michaelis-Menten and Eadie-Hofstee (inset of FIG. 9) equations.

AmTRET1 = target: T2, AmTRET1 (Apis mellifera ligustica, UniProt A9ZSY2); experiment: Trehalose uptake in Xenopus oocytes expressing AmTRET1; assay type: cell-based; conditions: 105 mM of trehalose, 3 h
T2 construct: ORF of either Tret1, DmTret1, AmTret1, AgTret1 or BmTret1 cDNA was amplified with PCR; expressed in transfected cells; host or cells: Xenopus laevis oocytes injected with cRNA
T2 sequence (A9ZSY2 1-502): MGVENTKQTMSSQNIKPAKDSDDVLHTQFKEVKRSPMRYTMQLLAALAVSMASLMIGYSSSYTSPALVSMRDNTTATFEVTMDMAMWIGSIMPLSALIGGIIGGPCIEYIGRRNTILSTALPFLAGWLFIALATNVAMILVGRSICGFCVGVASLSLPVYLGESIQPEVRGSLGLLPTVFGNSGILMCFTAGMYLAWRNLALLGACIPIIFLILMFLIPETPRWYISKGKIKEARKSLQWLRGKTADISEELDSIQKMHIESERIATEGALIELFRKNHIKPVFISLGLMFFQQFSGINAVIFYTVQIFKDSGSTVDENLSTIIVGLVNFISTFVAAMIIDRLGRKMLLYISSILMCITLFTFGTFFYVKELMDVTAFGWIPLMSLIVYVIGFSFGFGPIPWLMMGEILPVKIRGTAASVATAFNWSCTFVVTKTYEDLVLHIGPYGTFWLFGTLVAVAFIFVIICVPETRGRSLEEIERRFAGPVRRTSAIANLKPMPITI
From the text: as §1
All uptake assays for zero-trans trehalose and/or other sugars were performed using Xenopus oocytes expressing TRET1 at 15° C. in MBS containing appropriate concentrations of sugars. Sugar concentrations were determined using HPLC (Watanabe, M., et al. (2002) J Exp Biol 205, 2799-2802). All assays were carried out in triplicate. […] (data not shown).
Likewise, whether these Tret1-orthologs have trehalose transport activity was examined using the Xenopus oocyte expression system incubated in 105 mM of trehalose for 3 h.

## OC[C@H]1O[C@H](O[C@H]2O[C@H](CO)[C@@H](O)[C@H](O)[C@H]2O)[C@H](O)[C@@H](O)[C@@H]1O [trehalose]
TRET1; 105 mM trehalose
  time course of trehalose uptake into oocytes expressing TRET1: increased linearly for at least 6 h
TRET1; 105 mM trehalose 3 h, then trehalose-free buffer
  direction of trehalose transport after reversal of concentration gradient: shifted from an inward to outward direction
TRET1; 105 mM trehalose, pH 4.2 and 7.6, 3 h
  pH-dependency of TRET1 trehalose transport: acted over a wide extracellular pH range
TRET1; Xenopus oocytes expressing TRET1
  Vmax of TRET1 for trehalose: 7.84±0.77 nmol/15 min/oocyte
AmTRET1
  trehalose transport activity: showed trehalose transport activity
